Converted amounts (≈) assume the structure as drawn. Like-named read-outs stand apart in the source and are kept apart here.
What was measured:
[1] = system: Candida albicans; experiment: Antifungal MIC, Candida albicans; assay type: cell-based
Method: (§1) A 10 mL tube containing 4 mL of Sabourauds dextrose broth was inoculated with 1 colony of Candida albicans picked from a plate of pure culture. The strain was ordered from the American Type Culture Collection (ATCC). The organism was grown for 4 hours at 30° C. while shaking at 150 RPM. While the organism was growing, samples of hydroxy-itraconazoles were solubilized to a concentration of 10 mg/mL in DMSO. Each sample was then diluted 1:10 to make 1 mg/mL samples or 1000 μg/mL. These samples were then diluted by serial 2-fold dilutions to produce samples now containing 1000, 500, 250, 125, 62.5, 31.25, 15.6 μg/mL. […] At 4 hours of growth time the Candida albicans was diluted to a 0.5 McFarland standard representing about 10^5 -10^6 cells/mL and 1 μL of this inoculum placed into each test well of the microtiter dish. The dish was then covered and incubated at 30° C. for 16 hours.

[2] = system: A. fumigatis; experiment: Antifungal MIC, A. fumigatis; assay type: cell-based; conditions: A. fumigatis (Table 3)
Method: [The source words this procedure for another organism and reports this organism under the same test.] as §1

[3] = system: Cr. neoformens; experiment: Antifungal MIC, Cr. neoformens; assay type: cell-based, Cryptococcus neoformens; conditions: Cr. neoformens (Table 3); for MIC: Cryptococcus
Method: [The source words this procedure for another organism and reports this organism under the same test.] as §1

[4] = system: S. cerevisae; experiment: Antifungal MIC, S. cerevisae; assay type: cell-based, Saccharomyces cerevisiae; conditions: S. cerevisae (Table 3); for MIC: Saccharomyces cerevisiae
Method: [The source words this procedure for another organism and reports this organism under the same test.] as §1

[5] = biological target: T1, cytochrome P450 3A4 (Homo sapiens, UniProt P08684); experiment: Inhibition of cytochrome P450 3A4 (testosterone 6β-hydroxylase activity)
Method: (§2) The IC50 values were determined by the appearance of 6β-hydroxytestosterone after incubation with testosterone. […] Of greater clinical significance is the ratio of the IC50 for 3A4 to the MIC for C. albicans 44203.

[6] = Water solubility of hydroxyitraconazole isomers and itraconazole; assay type: physicochemical; conditions: for Area: λmax = 260 nm, LOD 5000 μV*sec
Method: The isomers of cis hydroxyitraconazole were tested for water solubility against a […] standard solution of hydroxyitraconazole. […] The values for 3+4 and 11+12 are barely above the LOD, giving accuracies of ±10%. In every case, solubilities were in the 10^1 to 10^2 ng/ml range.

[7] = system: Sacchromyces cerevisae; experiment: Kirby-Bauer Testing, Saccharomyces cerevisiae; assay type: cell-based; conditions: 10 μl of 10 mg/mL per disk, 30° C., 16 hours; for zone of inhibition at 10000 µg/mL: Saccharomyces cerevisiae
Method: The hydroxyitraconazole isomers were tested for biological activity according three different assays.
Actively growing cultures of Candida albicans, Cryptococcus neoformens and Saccharomyces cerevisiae were prepared as described above. The cultures were diluted to a 0.5 McFarland standard and swabbed onto a 150 mm Sabouraud Dextrose agar plates. Paper disks (7 mm) were placed onto the agar plates using a disk dispenser. […] The plates were then incubated at 30° C. for 16 hours. Zones of inhibition were then measured in mm.

[8] = system: delayed rectifier (IK); conditions: cited from earlier work; for Effect on cardiac repolarization: Torsades de Pointes side effect
[9] = biological target: T1, cytochrome P450 3A4
Method: as §2

[10] = Water solubility of hydroxyitraconazole phosphate isomers (NMG salts); assay type: physicochemical; conditions: Table 8
Excerpt: The water solubility of the NMG salts of the phosphate esters of isomers 1, 2 and 3+4 were investigated and compared to the corresponding hydroxyitraconazole isomers 1, 2 and 3+4. The phosphate esters were as much as 10^7 times more water soluble than the corresponding hydroxyitraconazole isomer.

[11] = Candida albicans, C. albicans strain 28516 (Table 3), read-out: Antifungal MIC
[12] = Candida albicans, C. albicans strain 28815 (Table 3), read-out: Antifungal MIC
[13] = Candida albicans, C. albicans strain 44203 (Table 3), read-out: Antifungal MIC
[14] = Candida albicans, C. albicans strain 44373 (Table 3), read-out: Antifungal MIC
[15] = Candida albicans, Candida albicans strain 44203 (Table 4), read-out: MIC
[16] = LOD: 5000 μV*sec, order-of-magnitude accuracy below LOD, 3+4 and 11+12 ±10%

T1 sequence (P08684 whole entry): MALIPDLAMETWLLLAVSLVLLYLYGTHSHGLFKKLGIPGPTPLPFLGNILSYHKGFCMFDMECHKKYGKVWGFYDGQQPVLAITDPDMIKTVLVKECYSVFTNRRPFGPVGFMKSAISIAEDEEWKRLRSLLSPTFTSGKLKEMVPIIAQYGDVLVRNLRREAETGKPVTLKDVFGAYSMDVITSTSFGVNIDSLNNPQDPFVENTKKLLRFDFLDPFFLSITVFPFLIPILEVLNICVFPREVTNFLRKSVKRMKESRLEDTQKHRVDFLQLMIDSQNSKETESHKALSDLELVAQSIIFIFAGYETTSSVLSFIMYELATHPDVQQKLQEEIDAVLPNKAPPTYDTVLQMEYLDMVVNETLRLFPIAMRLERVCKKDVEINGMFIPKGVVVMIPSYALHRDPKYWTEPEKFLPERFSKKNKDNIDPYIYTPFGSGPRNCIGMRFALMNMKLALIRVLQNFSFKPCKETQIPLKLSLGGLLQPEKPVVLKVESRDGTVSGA

Work on CC[C@H](C)n1ncn(-c2ccc(N3CCN(c4ccc(OC[C@H]5CO[C@](Cn6cncn6)(c6ccc(Cl)cc6Cl)O5)cc4)CC3)cc2)c1=O [Compound 5, reference compound] yielded an MIC ([1]; Candida albicans) of 0.312 µg/mL (≈ 0.443 µM).

In the case of CC[C@@H](C)n1ncn(-c2ccc(N3CCN(c4ccc(OC[C@H]5CO[C@](Cn6cncn6)(c6ccc(Cl)cc6Cl)O5)cc4)CC3)cc2)c1=O [Compound 6, reference compound], the MIC ([1]; Candida albicans) is reported as 0.312 µg/mL (≈ 0.443 µM).

For CC[C@H](C)n1ncn(-c2ccc(N3CCN(c4ccc(OC[C@@H]5CO[C@@](Cn6cncn6)(c6ccc(Cl)cc6Cl)O5)cc4)CC3)cc2)c1=O [Compound 7, reference compound], the MIC ([1]; Candida albicans) was < 0.078 µg/mL.

In the case of CC[C@@H](C)n1ncn(-c2ccc(N3CCN(c4ccc(OC[C@@H]5CO[C@@](Cn6cncn6)(c6ccc(Cl)cc6Cl)O5)cc4)CC3)cc2)c1=O [Compound 8, reference compound], the MIC ([1]; Candida albicans) is reported as < 0.078 µg/mL.

Work on C[C@@H](O)[C@H](C)n1ncn(-c2ccc(N3CCN(c4ccc(OC[C@@H]5CO[C@@](Cn6cncn6)(c6ccc(Cl)cc6Cl)O5)cc4)CC3)cc2)c1=O [Compound 9] yielded an MIC [2] of 0.137 µg/mL (≈ 0.19 µM), an MIC [1, 11] of 0.25 µg/mL (≈ 0.346 µM) and an MIC [1, 12] of 0.125 µg/mL (≈ 0.173 µM). For the same molecule, the MIC [1, 13] was 0.05 µg/mL (≈ 0.0693 µM), the MIC [1, 14] was 0.25 µg/mL (≈ 0.346 µM) and the MIC [1, 15] was 0.05 µg/mL (≈ 0.0693 µM). For the same molecule, the MIC [3] was 0.78 µg/mL (≈ 1.08 µM), the MIC [4] was 0.195 µg/mL (≈ 0.27 µM) and the selectivity ratio [5] was 7.4. It also gave a solubility ([6]; water, LOD: 5000 μV*sec, order-of-magnitude accuracy below LOD, 3+4 and 11+12 ±10%) of 0.045 µg/mL (≈ 0.0624 µM) and a zone of inhibition at 10000 µg/mL [7] of 20 mm.

C[C@H](O)[C@@H](C)n1ncn(-c2ccc(N3CCN(c4ccc(OC[C@@H]5CO[C@@](Cn6cncn6)(c6ccc(Cl)cc6Cl)O5)cc4)CC3)cc2)c1=O [Compound 10] gave an MIC [2] of 0.137 µg/mL (≈ 0.19 µM), an MIC [1, 11] of 0.25 µg/mL (≈ 0.346 µM) and an MIC [1, 12] of 0.125 µg/mL (≈ 0.173 µM). It also gave an MIC [1, 13] of 0.025 µg/mL (≈ 0.0346 µM), an MIC [1, 14] of 0.25 µg/mL (≈ 0.346 µM) and an MIC [1, 15] of 0.025 µg/mL (≈ 0.0346 µM). For the same molecule, the MIC [3] was 0.78 µg/mL (≈ 1.08 µM), the MIC [4] was 0.195 µg/mL (≈ 0.27 µM) and the selectivity ratio [5] was 19. For the same molecule, the Water solubility [6, 16] was “not detected”, the Area [6] was “not even detected” and the zone of inhibition at 10000 µg/mL [7] was 22 mm.

In the case of CCN(CC)CCNC(=O)c1ccc(NC(C)=O)cc1 [acetyl-procainamide], the “Effect on cardiac repolarization” value [8] is listed as “prolongation of cardiac repolarization” and the “Block of delayed rectifier (IK)” value [8] is listed as “ability to block a cellular potassium channel called the delayed rectifier (IK)”.

For C=C[C@H]1C[N@@]2CC[C@H]1C[C@@H]2[C@@H](O)c1ccnc2ccc(OC)cc12 [quinidine], the “Effect on cardiac repolarization” value [8] is given as “prolongation of cardiac repolarization” and the “Block of delayed rectifier (IK)” value [8] is given as “ability to block a cellular potassium channel called the delayed rectifier (IK)”.

For CC(C)NCC(O)c1ccc(NS(C)(=O)=O)cc1 (centres unmarked) [sotalol], the “Effect on cardiac repolarization” value [8] is listed as “prolongation of cardiac repolarization” and the “Block of delayed rectifier (IK)” value [8] is listed as “ability to block a cellular potassium channel called the delayed rectifier (IK)”.

In the case of “(2S,4R)-4-[4-[4-[4-[[2,4-dichlorophenyl)-2-(1H-1,2,4-triazol-1-ylmethyl)-1,3-dioxolan-4-yl]methoxy]phenyl]-1-piperazinyl]-2,4-dihydro-2-[(1S,2R)-(2-hydroxy-1-methylpropyl)]-3H-1,2,4,-triazol-3-one [Compound 2]”, the “Antifungal MIC” value [2] is reported as 0.137 µg/mL, the “Antifungal MIC” value ([1]; C. albicans strain 10231 (Table 3)) is reported as 0.5 µg/mL and the “Antifungal MIC” value ([1]; C. albicans strain 28516 (Table 3)) is reported as 0.25 µg/mL. For the same molecule, the “Antifungal MIC” value ([1]; C. albicans strain 28815 (Table 3)) was 0.5 µg/mL, the “Antifungal MIC” value ([1]; C. albicans strain 44203 (Table 3)) was 0.05 µg/mL and the “Antifungal MIC” value ([1]; C. albicans strain 44373 (Table 3)) was 0.25 µg/mL. The “Antifungal MIC” value ([1]; C. albicans strain 62342 (Table 3)) was 1.0 µg/mL, the MIC ([1]; Candida albicans strain 44203 (Table 4)) was 0.05 µg/mL and the “Antifungal MIC” value [3] was 0.39 µg/mL. For the same molecule, the “Antifungal MIC” value [4] was 0.39 µg/mL, the “IC50 /MIC Ratio” value [9] was 70 and the “Inhibition of P450 3A4 in words” value ([5]; testosterone 6β-hydroxylase activity) was “notably less inhibition of the P450 3A4 enzyme than the 2S,4R isomers”. For the same molecule, the “IC50/MIC ratio in words” value ([5]; therapeutic index, 3A4 vs C. albicans 44203) was “excellent results”, the Water solubility [6, 16] was “not detected” and the Area [6] was “not even detected”. For the same molecule, the Water solubility [10] was < 0.01 µg/mL and the “Kirby-Bauer zone of inhibition” value [7] was 20 mm.
